Measurements reported in ChEMBL document CHEMBL3856231 (J Med Chem, 2016).
Active and inactive are the calls of the source. The rule behind the calls is not given here.

How the values were obtained:
[1] = Half life in rat liver microsomes by LC/MS/MS analysis; format: ADME
[2] = target: T1, Cytochrome P450 1A2 (Homo sapiens, UniProt P05177); test: Inhibition of CYP1A2 in human liver microsomes using phenacetin as substrate in presence of NADPH by LC/MS/MS analysis; format: ADME
T1 sequence (P05177 whole entry): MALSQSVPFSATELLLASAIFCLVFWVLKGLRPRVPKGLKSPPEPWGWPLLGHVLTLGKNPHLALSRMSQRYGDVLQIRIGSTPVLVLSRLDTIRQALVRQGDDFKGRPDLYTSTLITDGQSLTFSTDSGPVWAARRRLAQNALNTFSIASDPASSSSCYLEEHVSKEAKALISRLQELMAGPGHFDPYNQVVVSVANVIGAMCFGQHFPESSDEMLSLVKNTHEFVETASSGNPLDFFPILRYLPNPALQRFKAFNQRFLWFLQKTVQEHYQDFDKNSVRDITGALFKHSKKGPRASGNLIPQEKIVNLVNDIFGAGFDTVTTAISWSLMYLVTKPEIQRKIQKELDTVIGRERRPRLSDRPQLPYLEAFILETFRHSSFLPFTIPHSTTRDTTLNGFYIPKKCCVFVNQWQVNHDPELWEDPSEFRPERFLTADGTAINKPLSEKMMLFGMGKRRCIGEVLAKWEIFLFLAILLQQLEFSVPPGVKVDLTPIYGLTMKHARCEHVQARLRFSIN

[3] = target: Cytochrome P450 2C19 (Homo sapiens, UniProt P33261); test: Inhibition of CYP2C19 in human liver microsomes using S-mephenytoin as substrate in presence of NADPH by LC/MS/MS analysis; format: ADME
Chain of Cytochrome P450 2C19 (P33261 whole entry): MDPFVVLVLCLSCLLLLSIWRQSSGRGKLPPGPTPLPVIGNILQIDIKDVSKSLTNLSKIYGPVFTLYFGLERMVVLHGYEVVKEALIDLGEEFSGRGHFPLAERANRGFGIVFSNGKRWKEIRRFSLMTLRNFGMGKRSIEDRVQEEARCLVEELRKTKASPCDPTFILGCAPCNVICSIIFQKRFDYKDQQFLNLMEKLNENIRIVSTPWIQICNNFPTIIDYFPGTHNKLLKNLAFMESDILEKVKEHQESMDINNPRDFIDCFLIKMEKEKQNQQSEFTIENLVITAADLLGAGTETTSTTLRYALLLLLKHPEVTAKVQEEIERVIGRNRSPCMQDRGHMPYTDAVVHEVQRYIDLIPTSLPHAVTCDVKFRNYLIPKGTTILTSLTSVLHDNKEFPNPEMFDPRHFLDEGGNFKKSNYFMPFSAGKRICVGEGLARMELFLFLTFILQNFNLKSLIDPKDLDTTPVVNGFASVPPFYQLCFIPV

[4] = target: Cytochrome P450 2D6 (Homo sapiens, UniProt P10635); test: Inhibition of CYP2D6 in human liver microsomes using dextromethorphan as substrate in presence of NADPH by LC/MS/MS analysis; format: ADME
Chain of Cytochrome P450 2D6 (P10635 whole entry): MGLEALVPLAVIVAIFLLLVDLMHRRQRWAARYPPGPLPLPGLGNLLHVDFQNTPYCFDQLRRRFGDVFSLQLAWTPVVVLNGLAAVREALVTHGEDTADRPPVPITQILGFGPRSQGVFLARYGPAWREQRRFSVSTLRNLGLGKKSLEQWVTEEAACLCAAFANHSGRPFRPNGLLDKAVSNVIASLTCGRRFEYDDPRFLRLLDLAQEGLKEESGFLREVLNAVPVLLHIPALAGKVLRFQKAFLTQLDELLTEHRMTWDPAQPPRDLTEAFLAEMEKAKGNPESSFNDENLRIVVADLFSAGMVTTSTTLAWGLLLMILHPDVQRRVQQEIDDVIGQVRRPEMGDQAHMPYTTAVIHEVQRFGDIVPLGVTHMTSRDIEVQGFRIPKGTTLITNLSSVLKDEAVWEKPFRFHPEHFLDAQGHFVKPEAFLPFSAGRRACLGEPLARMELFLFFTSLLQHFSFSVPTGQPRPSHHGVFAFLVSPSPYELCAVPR

[5] = Volume of distribution in Sprague-Dawley rat at 1 mg/kg, iv by LC/MS/MS analysis; format: ADME, organism-based; settings: in vivo
[6] = Cmax in cynomolgus monkey at 10 mg/kg, po by LC/MS/MS analysis; format: ADME, organism-based, Macaca fascicularis; set-up: dose 10 mg/kg, route oral; settings: in vivo
[7] = Tmax in CD-1 mouse at 10 mg/kg, po by LC/MS/MS analysis; format: ADME, organism-based; settings: in vivo
[8] = Tmax in Sprague-Dawley rat at 5 mg/kg, po by LC/MS/MS analysis; format: ADME, organism-based; settings: in vivo
[9] = Tmax in cynomolgus monkey at 10 mg/kg, po by LC/MS/MS analysis; format: ADME, organism-based, Macaca fascicularis; settings: in vivo
[10] = AUC (0 to infinity) in CD-1 mouse at 10 mg/kg, po by LC/MS/MS analysis; format: ADME, organism-based; set-up: dose 10 mg/kg, time infinity, route oral; settings: in vivo
[11] = Cmax in Sprague-Dawley rat plasma at 30 mg/kg, po by LC/MS/MS analysis; format: ADME, organism-based; set-up: dose 30 mg/kg, route oral
[12] = AUC (0 to 48 hrs) in Sprague-Dawley rat plasma at 30 mg/kg, po by LC/MS/MS analysis; format: ADME, organism-based; set-up: time < 48 hr, dose 30 mg/kg, route oral
[13] = Dose normalized AUC in CD-1 mouse at 10 mg/kg, po by LC/MS/MS analysis; format: ADME, organism-based; settings: in vivo
[14] = Cytotoxicity against human KARPAS299 cells expressing NPM-ALK assessed as cell growth inhibition; format: functional, cell-based; settings: KARPAS-299
[15] = test system: Mus musculus; test: Inhibition of NPM-ALK phosphorylation in human SUP-M2 cells xenografted in mouse at 30 mg/kg, po administered as single dose measured upto 24 hrs; format: functional
[16] = Drug level in tumor of NPM-ALK expressing human SUP-M2 cells xenografted mouse at 30 mg/kg, po administered as single dose measured at 2 hrs by LC-MS/MS analysis; format: ADME, organism-based, Neoplasm; settings: read-out: Drug uptake
[17] = Drug level in tumor of NPM-ALK expressing human SUP-M2 cells xenografted mouse at 30 mg/kg, po administered as single dose measured at 12 hrs by LC-MS/MS analysis; format: ADME, organism-based, Neoplasm; settings: read-out: Drug uptake
[18] = Drug level in plasma of NPM-ALK expressing human SUP-M2 cells xenografted mouse at 30 mg/kg, po administered as single dose measured at 24 hrs by LC-MS/MS analysis; format: ADME, organism-based
[19] = Drug level in tumor of NPM-ALK expressing human SUP-M2 cells xenografted mouse at 30 mg/kg, po administered as single dose measured at 24 hrs by LC-MS/MS analysis; format: ADME, organism-based, Neoplasm; settings: read-out: Drug uptake
[20] = test system: SUP-M2; test: Antitumor activity against human SUP-M2 cells expressing NPM-ALK xenografted in SCID-Beige mouse assessed as tumor ablation at 55 mg/kg, po qd administered for 12 days measured during compound dosing; format: functional, organism-based
[21] = test system: NCI-H2228; test: Antitumor activity against human NCI-H2228 cells expressing EML4-ALK xenografted in SCID-Beige mouse assessed as reduction in tumor volume at 30 mg/kg, po bid administered for 11 days measured during compound dosing; format: functional, organism-based
[22] = test system: NCI-H2228; test: Antitumor activity against human NCI-H2228 cells expressing EML4-ALK xenografted in SCID-Beige mouse assessed as reduction in tumor re-emergence at 30 and 55 mg/kg, po bid for 11 days followed by switching of drug schedule to 55 mg/kg, po qd on day 12 up to day 40 and measured on day 80; format: functional, organism-based
[23] = Drug level in plasma of FAK expressing human CWR22 cells xenografted Nu/Nu mouse at 55 mg/kg, po administered as single dose measured at 2 hrs by LC-MS/MS analysis; format: ADME, organism-based
[24] = Drug level in plasma of FAK expressing human CWR22 cells xenografted Nu/Nu mouse at 55 mg/kg, po administered as single dose measured at 6 hrs by LC-MS/MS analysis; format: ADME, organism-based
[25] = Drug level in tumor of FAK expressing human CWR22 cells xenografted Nu/Nu mouse at 55 mg/kg, po administered as single dose measured at 12 hrs by LC-MS/MS analysis; format: ADME, organism-based, Neoplasm; settings: read-out: Drug uptake
[26] = Drug level in plasma of FAK expressing human CWR22 cells xenografted Nu/Nu mouse at 55 mg/kg, po administered as single dose measured at 24 hrs by LC-MS/MS analysis; format: ADME, organism-based
[27] = Drug level in tumor of FAK expressing human CWR22 cells xenografted Nu/Nu mouse at 55 mg/kg, po administered as single dose measured at 24 hrs by LC-MS/MS analysis; format: ADME, organism-based, Neoplasm; settings: read-out: Drug uptake
[28] = Antitumor activity against human HCC827 cells expressing activated FAK xenografted in SCID-Beige mouse assessed as incidence of partial tumor regression at 55 mg/kg, po bid administered for 28 days; format: functional
[29] = test system: Mus musculus; test: Toxicity in SCID-Beige mouse xenografted with human HCC827 cells expressing activated FAK assessed as overt toxicity at 30 to 55 mg/kg, po bid administered for 28 days; format: organism-based; settings: in vivo, 672 h
[30] = test system: Mus musculus; test: Toxicity in SCID-Beige mouse xenografted with human HCC827 cells expressing activated FAK assessed as body weight loss at 30 to 55 mg/kg, po bid administered for 28 days measured every 2 to 3 days; format: organism-based; settings: in vivo
[31] = test system: IBC; test: Cytotoxicity against human IBC cells assessed as reduction in cell proliferation; format: functional, cell-based
[32] = target: ALK tyrosine kinase receptor (Homo sapiens, UniProt Q9UM73); settings: 1 uM
Chain of ALK tyrosine kinase receptor (Q9UM73 19-1620 limits assumed): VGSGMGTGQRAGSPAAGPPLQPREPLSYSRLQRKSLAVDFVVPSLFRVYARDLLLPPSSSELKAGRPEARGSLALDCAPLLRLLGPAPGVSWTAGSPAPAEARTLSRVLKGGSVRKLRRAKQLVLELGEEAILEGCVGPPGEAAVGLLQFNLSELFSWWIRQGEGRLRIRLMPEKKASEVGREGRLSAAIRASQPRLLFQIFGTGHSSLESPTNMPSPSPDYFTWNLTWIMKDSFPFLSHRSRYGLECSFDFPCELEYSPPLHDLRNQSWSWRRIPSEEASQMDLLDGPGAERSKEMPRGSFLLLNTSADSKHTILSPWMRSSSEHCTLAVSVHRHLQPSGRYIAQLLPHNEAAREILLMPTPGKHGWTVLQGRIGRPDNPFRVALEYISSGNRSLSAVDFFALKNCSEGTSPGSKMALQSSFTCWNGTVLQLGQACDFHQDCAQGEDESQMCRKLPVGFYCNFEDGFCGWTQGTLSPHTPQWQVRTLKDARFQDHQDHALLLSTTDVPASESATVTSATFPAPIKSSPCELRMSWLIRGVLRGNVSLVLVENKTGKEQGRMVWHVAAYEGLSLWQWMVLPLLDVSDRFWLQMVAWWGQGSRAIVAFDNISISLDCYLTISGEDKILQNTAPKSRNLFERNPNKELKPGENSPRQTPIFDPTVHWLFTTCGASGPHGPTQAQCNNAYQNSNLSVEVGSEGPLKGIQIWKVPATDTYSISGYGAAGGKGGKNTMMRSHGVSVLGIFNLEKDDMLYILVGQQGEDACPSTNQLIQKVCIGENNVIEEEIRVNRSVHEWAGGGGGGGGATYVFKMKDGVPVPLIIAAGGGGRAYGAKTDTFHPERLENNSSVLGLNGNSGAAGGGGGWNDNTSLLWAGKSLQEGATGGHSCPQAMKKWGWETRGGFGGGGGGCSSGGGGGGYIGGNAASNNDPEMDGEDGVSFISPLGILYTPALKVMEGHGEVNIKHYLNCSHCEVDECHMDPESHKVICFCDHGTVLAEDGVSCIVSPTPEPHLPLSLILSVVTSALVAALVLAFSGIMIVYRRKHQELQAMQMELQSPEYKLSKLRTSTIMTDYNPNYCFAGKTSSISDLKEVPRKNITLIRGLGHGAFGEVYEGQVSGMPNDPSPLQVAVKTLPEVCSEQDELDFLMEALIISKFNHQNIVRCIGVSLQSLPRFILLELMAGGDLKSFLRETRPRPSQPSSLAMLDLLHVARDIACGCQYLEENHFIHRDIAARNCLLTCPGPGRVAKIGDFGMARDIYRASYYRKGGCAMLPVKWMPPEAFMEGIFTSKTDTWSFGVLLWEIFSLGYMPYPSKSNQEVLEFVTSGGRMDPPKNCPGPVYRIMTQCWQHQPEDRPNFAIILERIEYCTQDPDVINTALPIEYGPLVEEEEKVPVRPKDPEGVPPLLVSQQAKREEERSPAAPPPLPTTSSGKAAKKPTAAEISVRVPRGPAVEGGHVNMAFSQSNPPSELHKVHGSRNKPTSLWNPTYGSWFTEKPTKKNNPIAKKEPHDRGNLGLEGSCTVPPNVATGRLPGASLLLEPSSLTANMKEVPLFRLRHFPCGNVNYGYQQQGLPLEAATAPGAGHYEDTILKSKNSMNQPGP
Description: Inhibition of human ALK (1088 to 1409 residues) expressed in mammalian system at 1 uM by KINOMEscan assay

Q: Which results are given for `CNC(=O)c1ccccc1Nc1nc(Nc2ccc3c(c2OC)CCC[C@H](N2CCN(CCO)CC2)C3)ncc1Cl` [CEP-37440]?
A: half-life [1]: 0.667 h; IC50 [2]: > 5.6 µM; IC50 [3]: > 5.6 µM; IC50 [4]: > 5.6 µM; Vd [5]: 0.8 L/kg; Cmax [6]: 0.239 µg/mL; Tmax [7]: 2 h; Tmax [8]: 3.3 h; Tmax [9]: 6 h; AUC(0-inf) [10]: 16.4 µg·h/mL; Cmax [11]: 2120 ng/g; AUC(0-t) at 48 h [12]: 31.5 µg·h/mL; AUC/dose [13]: 1643 ng·h/mL; IC50 [14]: 0.131 µM; inhibition in vivo at 30 mg/kg [15]: > 85%; concentration at 2 h [16]: 6040 ng/g; concentration at 12 h [17]: 8580 ng/g; concentration at 24 h [18]: 1.16 µg/mL; concentration at 24 h [19]: 8200 ng/g; Activity [20]: Active; Activity [21]: Active; Activity [22]: Active; concentration at 2 h [23]: 4.13 µg/mL; concentration at 6 h [24]: 3.79 µg/mL; concentration at 12 h [25]: 3810 ng/g; concentration at 24 h [26]: 1.19 µg/mL; concentration at 24 h [27]: 8680 ng/g; Activity [28]: 60%; Activity [29]: Non-Toxic; Activity [30]: Non-Toxic; growth inhibition (GI) [31]: Dose-dependent effect; inhibition [32]: > 90%
